Data as given in patent US20250090626A1, “NEW PEPTIDE AND USES THEREOF” (Neo Cremar Co., Ltd., priority 2021, published 2025).
No end group written: not given here.

How the values were obtained:
Type in all cases: cell-based, mouse
C2C12 cells [1] = test: C2C12 cell proliferation (MTT method); details: C2C12, peptide 1000 nM, 1 day, MTT; FIG. 4
Description: C2C12 cells, a mouse myoblast line, were cultured in Dulbecco's Modified Eagle's Medium (DMEM)+10% fetal bovine serum (FBS)+1% penicillin/streptomycin (P/S). To validate the effect of MIF peptide, C2C12 cells (2×10^3 cells/ml) were placed in a 12 well cell culture dish and attached for 24 hours, and MIF peptide (1000 nM) was treated for 1 day to observe cell proliferation by MTT method. The medium was replaced every 2 days, and the cells were cultured at 37° C.
(§1) To validate cell proliferation, the culture medium of the cells was removed, the cells were washed with DMEM, 500 μl of MTT reagent (0.5 mg/ml) dissolved in phosphate buffered saline (PBS) was added to each well, and the cells were left at 37° C. for 1 hour. The reaction solution was removed, and 1000 μl of DMSO was added to each well. Purple formazan crystals were completely dissolved in DMSO, and the absorbance was measured at 540 nm.

C2C12 cells [2] = test: Scratch experiment, degree of cell recovery; details: C2C12, 1000 nM peptide, 1 day in proliferation medium
Description: When the C2C12 cells were 100% grown, cells were scratches on the surface, treated with 1000 nM MIF1 or Ac-MIF1 peptides, and cultured for 1 day, followed by observation for a degree of cell recovery.

3T3L1 cells [3] = test: 3T3L1 cell proliferation (MTT method); details: 3T3L1, Ac-MIF1 1000 nM, 2 days, FIG. 13A
Description: 3T3L1 cells, mouse fibroblasts, were cultured in Dulbecco's Modified Eagle's Medium (DMEM)+10% fetal bovine serum (FBS)+1% penicillin/streptomycin (P/S). To validate the effect of MIF peptide, 3T3L1 cells (2×10^3 cells/ml) were placed in a 12-well cell culture dish, attached for 24 hours, and treated with MIF peptide (1000 nM) for 2 days, followed by observation of cell proliferation by MTT method. The medium was replaced every 2 days, and the cells were cultured at 37° C.
as §1

3T3L1 cells [4] = test: Expression of FMOD, MSTN and lipogenesis-related mRNAs and proteins in 3T3L1 cells; details: 3T3L1, Ac-MIF1 treated vs untreated; FIG. 13C
Description: After adding 1 ml of TRIzol™ reagent, the cells were crushed using a sonicator. After centrifugation of the crushed sample (12,000 rpm, 10 min, 4° C.), the supernatant was transferred to a new tube, added with 200 μl of chloroform, and left at room temperature for 10 minutes. After 10 minutes, centrifugation (12,000 rpm, 10 min, 4° C.) was performed, yielded a transparent supernatant. Next, 500 μl of isopropanol was added, the mixture was left for 10 minutes, and centrifugation was performed to obtain RNA pellets. After washing by adding 70% ethanol (distilled water treated with ethanol+diethylpyrocarbonate (hereinafter referred to as DEPC)) to the RNA pellets, complete removal and drying were followed. The dried transparent RNA was added with DEPC-treated distilled water and then stored at −80° C. Total RNA volume was measured by nanodrop, and the 18s and 28s bands were detected in 1.2% agarose gel. cDNA was synthesized with 2 μg of total RNA, random hexamer primers, and reverse transcriptase (25° C.: 10 min, 37° C.: 120 min, 85° C.: 5 min).
Real-time PCR (RT-PCR) was performed for detecting gene expression. For observation of real-time gene expression, gene expression was analyzed using the Power SYBR Green PCR Master Mix, which includes fluorescent materials of SYBR green (7500 Real-time PCR system). The PCR primer was designed with Primer 3 software (http://frodo.wi.mit.edu) according to the nucleotide sequence secured from NCBI GenBank. PCR was performed 40 times at 95° C. for 10 minutes, again at 95° C. for 33 seconds, at gene primer temperature (tm) for 33 seconds, and at 72° C. for 33 seconds. Gene expression values were analyzed through the analysis of c(t) values obtained through real-time PCR analysis (fold change 2-^ΔΔCt formula). Setting the gene expression value of the untreated cells to 1, the gene expression value of the treated cells was calculated. In the analysis of gene c(t) values, normalization was conducted with the glyceraldehyde-3-phosphate dehydrogenase (GAPDH).
(2) The medium of cultured 3T3L1 cells was removed and washed with PBS. After adding LIPA buffer and protease inhibitor to the washed cells, the proteins included in the supernatant were collected after centrifugation at 12000 rpm for 10 minutes. 40 μg of the extracted proteins were subjected to electrophoresis in 8 to 10% acrylamide gel and then transferred to a polyvinylidene fluoride (PVDF) membrane (Milipore). These were blocked with 3% skim milk or bovine serum albumin (BSA) at room temperature for 1 hour. Afterwards, primary antibody diluted in 1% skim milk or BSA (MSTN; 1:1000, 13-actin; 1:1000, CD36; 1:500, CD163; 1:500, FMOD; 1:400, and PPARγ; 1:500) was added and reacted at 4° C. for over 16 hours. After 16 hours, they were washed three times with TBST (Tris-buffered saline with Tween 20) and reacted with secondary antibody conjugated with horseradish peroxidase (HRP) at room temperature for 1 hour. It was washed three times with TBST and developed after adding Super Signal West Pico Chemiluminescent Substrate.

## Ac-VDFEAFWDWG [Ac-MIF1, MIF1 with N-terminus acetylated, 10 mer]
C2C12 cells [1]
  cell proliferation, increase compared to cells without peptide treatment: 24%
C2C12 cells [2]
  scratch recovery degree, increase compared to untreated cells: 28%
3T3L1 cells [3]
  proliferation of 3T3L1 cells, decrease compared to cells without peptide treatment: 8%
3T3L1 cells [4]
  CD36 expression (mRNA and protein): decreased
  CD163 expression (mRNA and protein): decreased
  FMOD expression (mRNA and protein): decreased
  MSTN expression (mRNA and protein): decreased
  PPARγ expression (mRNA and protein): decreased
